Measured values: patent publication US12110295B2, “WD40 repeat domain protein 5 (WDR5) degradation/disruption compounds and methods of use” (Icahn School of Medicine at Mount Sinai, priority 2018, dated 2024)
“Also recorded” adds a separate entry of the source.

How the values were obtained:
MIAPACA2 cells = experiment: MTT cell proliferation assay in MIAPACA2 cells; type: cell-based; conditions: 6 days, FIG. 11; for proliferation of MIAPACA2 cells: 0.01, 0.03, 0.1, 0.5, 1, 5 and 10 μM
Protocol: Assessment of the cell proliferation effects of WDR5 degraders XF056-132, XF056-173 and XF067-67 in MIAPACA2 cells (FIG. 11). MIAPACA2 cells were treated with DMSO or indicated compounds at 0.01 μM, 0.03 μM, 0.1 μM, 0.5 μM, 1 μM, 5 μM, and 10 μM for 6 days. MTT assay was used for detecting cell proliferation effects.
MIAPACA2 and Hela cells were cultured in DMEM supplemented with 10% FBS and 1% Penicillin/Streptomycin.

WDR5 = WDR5 (Homo sapiens, UniProt P61964); experiment: Screening of putative WDR5 degraders by Western blot in MV4;11 and/or MIAPACA2 cells; type: cell-based; parameters: After WDR5 degrader treatment, cells were collected and lysed; endogenous in cells; host or cells: MV4;11 and/or MIAPACA2; conditions: summary of screening, FIGS. 6-10
How it was run: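 MV4;11 (1×10^6/well) or MIAPACA2 (1×10^5/well) cells treated 18 h with compound at paired doses between 0.1 and 10 μM, DMSO as control. Total lysates immunoblotted for WDR5 with vinculin, tubulin or GAPDH loading controls; fluorescent secondary detection.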

effective degradation of WDR5 in MV4;11 and/or MIAPACA2 cells (WDR5) | SMILES | proliferation of MIAPACA2 cells (MIAPACA2 cells) | cell killing effect, rank among the 3 compounds (MIAPACA2 cells; MIAPACA2 cells)
 | Cc1ncsc1-c1ccc([C@H](C)NC(=O)[C@@H]2C[C@@H](O)CN2C(=O)[C@@H](NC(=O)CNC(=O)c2ccc(F)c(-c3ccc(N4C[C@@H](C)N(C)[C@@H](C)C4)c(NC(=O)c4c[nH]c(=O)cc4C(F)(F)F)c3)c2)C(C)(C)C)cc1 [XF067-67, N-(2′-fluoro-5′-((2-(((S)-1-((2S,4R)-4-hydroxy-2-(((S)-1-(4-(4-methylthiazol-5-yl)phenyl)ethyl)carbamoyl)pyrrolidin-1-yl)-3,3-dimethyl-1-oxobutan-2-yl)amino)-2-oxoethyl)carbamoyl)-4-((3S,5R)-3,4,5-trimethylpiperazin-1-yl)-[1,1′-biphenyl]-3-yl)-6-oxo-4-(trifluoromethyl)-1,6-dihydropyridine-3-carboxamide] | significantly decreased the cell proliferation; also recorded: significantly reduced the proliferation of MIAPACA2 cells | the best cell killing effect among the 3 compounds
able to effectively degrade WDR5 | C[C@@H]1CN(c2ccc(-c3cc(CN4CCN(CCNC(=O)CCOCCOCCOCCOCCOCCNc5cccc6c5C(=O)N(C5CCC(=O)NC5=O)C6=O)CC4)ccc3F)cc2NC(=O)c2c[nH]c(=O)cc2C(F)(F)F)C[C@H](C)N1C (stereo partly drawn) [XF078-29, N-(5′-((4-(1-((2-(2,6-dioxopiperidin-3-yl)-1,3-dioxoisoindolin-4-yl)amino)-18-oxo-3,6,9,12,15-pentaoxa-19-azahenicosan-21-yl)piperazin-1-yl)methyl)-2′-fluoro-4-((3S,5R)-3,4,5-trimethylpiperazin-1-yl)-[1,1′-biphenyl]-3-yl)-6-oxo-4-(trifluoromethyl)-1,6-dihydropyridine-3-carboxamide] |  | 
able to effectively degrade WDR5 | Cc1ncsc1-c1ccc(CNC(=O)[C@@H]2C[C@@H](O)CN2C(=O)[C@@H](NC(=O)CCOCCOCCC(=O)N2CCN(Cc3cnc(N4CC=C(c5cc(NC(=O)c6c[nH]c(=O)cc6C(F)(F)F)c(N6C[C@@H](C)N(C)[C@@H](C)C6)cc5F)CC4)nc3)CC2)C(C)(C)C)cc1 [XF078-135, N-(4-fluoro-5-(1-(5-((4-(3-(2-(3-(((S)-1-((2S,4R)-4-hydroxy-2-((4-(4-methylthiazol-5-yl)benzyl)carbamoyl)pyrrolidin-1-yl)-3,3-dimethyl-1-oxobutan-2-yl)amino)-3-oxopropoxy)ethoxy)propanoyl)piperazin-1-yl)methyl)pyrimidin-2-yl)-1,2,3,6-tetrahydropyridin-4-yl)-2-((3S,5R)-3,4,5-trimethylpiperazin-1-yl)phenyl)-6-oxo-4-(trifluoromethyl)-1,6-dihydropyridine-3-carboxamide] |  | 
able to effectively degrade WDR5 | Cc1ncsc1-c1ccc(CNC(=O)[C@@H]2C[C@@H](O)CN2C(=O)[C@@H](NC(=O)CCCCCCCCCNC(=O)c2ccc(-c3ccc(N4C[C@@H](C)N(C)[C@@H](C)C4)c(NC(=O)c4c[nH]c(=O)cc4C(F)(F)F)c3)c(F)c2)C(C)(C)C)cc1 [XF056-173, N-(2′-fluoro-4′-((10-(((S)-1-((2S,4R)-4-hydroxy-2-((4-(4-methylthiazol-5-yl)benzyl)carbamoyl)pyrrolidin-1-yl)-3,3-dimethyl-1-oxobutan-2-yl)amino)-10-oxodecyl)carbamoyl)-4-((3R,5S)-3,4,5-trimethylpiperazin-1-yl)-[1,1′-biphenyl]-3-yl)-6-oxo-4-(trifluoromethyl)-1,6-dihydropyridine-3-carboxamide] | significantly decreased the cell proliferation; also recorded: significantly reduced the proliferation of MIAPACA2 cells | 
able to effectively degrade WDR5 | C[C@@H]1CN(c2cc(F)c(C3=CCN(c4ncc(CN5CCN(C(=O)CNc6cccc7c6C(=O)N(C6CCC(=O)NC6=O)C7=O)CC5)cn4)CC3)cc2NC(=O)c2c[nH]c(=O)cc2C(F)(F)F)C[C@H](C)N1C (stereo partly drawn) [XF078-149, N-(5-(1-(5-((4-((2-(2,6-dioxopiperidin-3-yl)-1,3-dioxoisoindolin-4-yl)glycyl)piperazin-1-yl)methyl)pyrimidin-2-yl)-1,2,3,6-tetrahydropyridin-4-yl)-4-fluoro-2-((3S,5R)-3,4,5-trimethylpiperazin-1-yl)phenyl)-6-oxo-4-(trifluoromethyl)-1,6-dihydropyridine-3-carboxamide] |  | 
able to effectively degrade WDR5 | Cc1ncsc1-c1ccc(CNC(=O)[C@@H]2C[C@@H](O)CN2C(=O)[C@@H](NC(=O)CCCCCC(=O)N2CCN(Cc3cnc(N4CC=C(c5cc(NC(=O)c6c[nH]c(=O)cc6C(F)(F)F)c(N6C[C@@H](C)N(C)[C@@H](C)C6)cc5F)CC4)nc3)CC2)C(C)(C)C)cc1 [XF078-144, N-(4-fluoro-5-(1-(5-((4-(7-(((S)-1-((2S,4R)-4-hydroxy-2-((4-(4-methylthiazol-5-yl)benzyl)carbamoyl)pyrrolidin-1-yl)-3,3-dimethyl-1-oxobutan-2-yl)amino)-7-oxoheptanoyl)piperazin-1-yl)methyl)pyrimidin-2-yl)-1,2,3,6-tetrahydropyridin-4-yl)-2-((3S,5R)-3,4,5-trimethylpiperazin-1-yl)phenyl)-6-oxo-4-(trifluoromethyl)-1,6-dihydropyridine-3-carboxamide] |  | 

SMILES | effective degradation of WDR5 in MV4;11 and/or MIAPACA2 cells (WDR5) | proliferation of MIAPACA2 cells (MIAPACA2 cells) | cell killing effect, rank among the 3 compounds (MIAPACA2 cells; MIAPACA2 cells)
Cc1ncsc1-c1ccc(CNC(=O)[C@@H]2C[C@@H](O)CN2C(=O)[C@@H](NC(=O)COCC(=O)N2CCN(c3ncc(-c4cc(NC(=O)c5ccc(F)cc5C(F)(F)F)c(N5C[C@@H](C)N(C)[C@@H](C)C5)cc4F)cn3)CC2)C(C)(C)C)cc1 [XF078-99, (2S,4R)-1-((S)-2-(2-(2-(4-(5-(2-fluoro-5-(4-fluoro-2-(trifluoromethyl)benzamido)-4-((3S,5R)-3,4,5-trimethylpiperazin-1-yl)phenyl)pyrimidin-2-yl)piperazin-1-yl)-2-oxoethoxy)acetamido)-3,3-dimethylbutanoyl)-4-hydroxy-N-(4-(4-methylthiazol-5-yl)benzyl)pyrrolidine-2-carboxamide] | able to effectively degrade WDR5 |  | 
Cc1ncsc1-c1ccc(CNC(=O)[C@@H]2C[C@@H](O)CN2C(=O)[C@@H](NC(=O)CCCCCCCCC(=O)N2CC=C(c3cc(NC(=O)c4c[nH]c(=O)cc4C(F)(F)F)c(N4C[C@@H](C)N(C)[C@@H](C)C4)cc3F)CC2)C(C)(C)C)cc1 [XF078-45, N-(4-fluoro-5-(1-(10-(((S)-1-((2S,4R)-4-hydroxy-2-((4-(4-methylthiazol-5-yl)benzyl)carbamoyl)pyrrolidin-1-yl)-3,3-dimethyl-1-oxobutan-2-yl)amino)-10-oxodecanoyl)-1,2,3,6-tetrahydropyridin-4-yl)-2-((3S,5R)-3,4,5-trimethylpiperazin-1-yl)phenyl)-6-oxo-4-(trifluoromethyl)-1,6-dihydropyridine-3-carboxamide] | able to effectively degrade WDR5 |  | 
Cc1ncsc1-c1ccc(CNC(=O)[C@@H]2C[C@@H](O)CN2C(=O)[C@@H](NC(=O)CCOCCOCCC(=O)N2CCN(c3ncc(-c4cc(NC(=O)c5ccc(F)cc5C(F)(F)F)c(N5C[C@@H](C)N(C)[C@@H](C)C5)cc4F)cn3)CC2)C(C)(C)C)cc1 [XF078-102, (2S,4R)-1-((S)-2-(3-(2-(3-(4-(5-(2-fluoro-5-(4-fluoro-2-(trifluoromethyl)benzamido)-4-((3S,5R)-3,4,5-trimethylpiperazin-1-yl)phenyl)pyrimidin-2-yl)piperazin-1-yl)-3-oxopropoxy)ethoxy)propanamido)-3,3-dimethylbutanoyl)-4-hydroxy-N-(4-(4-methylthiazol-5-yl)benzyl)pyrrolidine-2-carboxamide] | able to effectively degrade WDR5 |  | 
